This is an account of results in patent US20240391940A1, “FUSED RING-CONTAINING COMPOUND, APPLICATION THEREOF, AND COMPOSITION CONTAINING SAME” (GenEros Biopharma Ltd., priority 2020, published 2024).

Data set [1] relates to LPS-induced production of TNF-α. Put plainly: LPS-induced TNF-α production in mice (plasma ELISA). In kind it is in vivo. The note with it: Balb/c mice; GEN1-284s 15 mpk intragastric, LPS 1 mpk i.p. 0.5 h after administration, plasma 2 h after LPS. How it is done: Materials and method: A total of 18 mice were used in this experiment. The mice were divided into a MOCK group (n=6), a dexamethasone group (n=6), and a GEN1-284s 15 mpk group (n=6). LPS (1 mpk) was intraperitoneally injected 0.5 h after administration. The mice were sacrificed 2 h after the LPS injection, and blood samples were taken. The blood samples were left in EDTA-K2 anticoagulant tubes at room temperature for 20 min and centrifuged at 8000 rpm for 10 min. The plasma was separated and cryopreserved at −80° C. before analysis.
LPS (1 mpk) was intraperitoneally injected 0.5 h after administration. The mice were sacrificed 2 h after the LPS injection, and blood samples were taken. The blood samples were left in EDTA-K2 anticoagulant tubes at room temperature for 20 min and centrifuged at 8000 rpm for 10 min. The plasma was separated and cryopreserved at −80° C. before analysis.
The mice were tested for TNF-α level with ELISA kits, and the inhibitory effect of GEN1-284s on the TNF-α level was evaluated.
According to the instructions for use, a standard curve formula (y=0.0038x+0.1206, R^2=0.9956) was obtained and can be used to calculate detection values.
(In general: ELISA stands for enzyme-linked immunosorbent assay.)

Data set [2] has as its system Apoe KO mouse atherosclerosis model. Put plainly: Atherosclerosis model: aortic plaque En-face staining and plaque area. Type of data set: in vivo, C57BL/6 Apoe KO mice. Particulars: Apoe KO mice, high-fat diet; GEN1-284s 60 mpk QD oral. The procedure: (§1) Method: Apoe KO mice were tested for basal blood lipid levels and divided into a normal control group and a high-fat group. After 8 weeks of housing, the mice from the high-fat group were divided into 4 groups of about 8: a normal diet group (Chow), a high-fat diet model group (HFD), an Atorvastatin positive group (HFD+atorvastatin 5 mpk, QD), and a GEN1-284s group (284-60 mpk, QD). Oral administration was performed for 8 consecutive weeks, and the effect of the compound on the following indicators in Apoe KO mice was observed: 4 blood lipid tests (TC, TG, HDL-C and LDL-C), aortic plaque En-face staining, and pathological oil red staining of the cardiac outflow tract.
(§2) Mice from the groups except for the normal diet control group (Chow) were fed with high-fat feed every day for […]. From week 9, each group was orally administered solvent or a corresponding test compound, and body weight data were recorded every day for 8 consecutive weeks. After the first 8 weeks' high-fat diet, blood samples were taken and centrifuged to separate serum, and the serum was tested for blood lipid levels (TCHO, TG, LDL-C and HDL-C). The mice were randomly grouped according to the TCHO results and body weight. During the subsequent 8 weeks of administration, blood lipid tests (TCHO, TG, LDL-C and HDL-C) were run once every 4 weeks.
At the end of the experiment, the mice were euthanized by CO2 inhalation, and their hearts and aortas (from the aortic arch to the iliac artery) were isolated. The isolated artery was dissected longitudinally from the aortic arch to the iliac artery, fixed in 4% paraformaldehyde for 30 min, synchronized with 60% isopropanol for 10 min, then stained in 60% oil red for 30 min, and then washed with 60% isopropanol 3 times for 5 min each time. Finally, the stained aorta was washed with deionized water and photographed. The proportion of red plaque areas was measured using Image Pro Plus 6.0 (Media Cybernetics, MD, US).

The next data set relates to female BALB/c mice. Put plainly: Toxicity, multiple administrations for 14 days in mice. In kind it is in vivo. The note with it: female BALB/c mice. The procedure:
• Part I: Single administration. A total of 6 mice were used. They were randomly divided into 2 groups: the vehicle control and GEN1-284s (1000 mg/kg), dosed once by oral gavage and observed for 6 days, and changes in body weight and activities were recorded. • Part II: Multiple administrations. This experiment used a total of 6 mice. They were divided into two groups of 3: a GEN1-284s-1000 mg/kg group and a GEN1-284s-300 mg/kg group, and were intragastrically given GEN1-284s for 14 consecutive days at 200 μL each. The state and survival of the mice were observed every day, and their body weights were recorded. Two mice died 2 h after GEN1-284s-1000 mg/kg administration. The dose was changed to 600 mg/kg, and the experiment was continued.
This experiment used a total of 6 mice. They were divided into two groups of 3: a GEN1-284s-1000 mg/kg group and a GEN1-284s-300 mg/kg group, and were intragastrically given GEN1-284s for 14 consecutive days at 200 μL each. The state and survival of the mice were observed every day, and their body weights were recorded. Two mice died 2 h after GEN1-284s-1000 mg/kg administration. The dose was changed to 600 mg/kg, and the experiment was continued.
Each mouse was intragastrically administered GEN1-284s for 14 consecutive days in a volume of 200 μL/20 g. The state and survival of the mice were observed every day, and their body weights were recorded. Two mice died 2 h after GEN1-284s-1000 mg/kg administration. The dose was changed to 600 mg/kg, and the experiment was continued.
Changes in body weight and survival of the mice were observed during 6 days after the single administration, and changes in body weight and the survival of the mice were observed during 14 consecutive days of high-dose GEN1-284s administration.

Data set [3] deals with Apoe KO mouse atherosclerosis model. In words: Atherosclerosis model (Apoe KO mice, high-fat diet): blood lipid tests TCHO, TG, LDL-C, HDL-C. Type of data set: in vivo, C57BL/6 Apoe KO mice. The note with it: Apoe KO mice, high-fat diet; GEN1-284s 60 mpk QD oral, 8 weeks. How it is done: as §1, §2
Mice were fasted overnight, and blood (150 μL) was collected via mandibular blood sampling or eye ball removal (for endpoint only) and left at room temperature for 2 h. The blood was centrifuged at 4° C. at 7000 rpm for 10 min, and serum was pipetted, quick-frozen in dry ice and then stored at −80° C. before analysis. The serum was tested for the biochemical indicators TCHO, TG, LDL-C and HDL-C using kits and a microplate reader.

Data set [4] shares this test system. In words: Atherosclerosis model: plaques in the cardiac (left ventricular) outflow tract. Type of data set: in vivo, C57BL/6 Apoe KO mice. The note with it: Apoe KO mice, high-fat diet; GEN1-284s 60 mpk QD oral. How it is done:
as §1, §2
Mouse heart samples were fixed overnight in 4% paraformaldehyde solution and dehydrated in sucrose solution. Then, the samples were embedded with OCT (Sakura, Japan) under a stereo microscope and made into 10 μm frozen sections. The sections were stained with oil red ORO and then subjected to routine pathological examinations. Images of the outflow tract were acquired under an optical microscope at 4× magnification, and high-quality morphological observations were carried out using an eyepiece with 20× magnification. The percentage of intimal lesions in the cardiac outflow tract was calculated. The detection criteria followed the criteria for histological classification of human atherosclerotic disease, which are described in detail below:
The area of plaques in the left ventricular outflow tract was measured using a microscope, and the proportion of plaques in the left ventricular outflow tract was calculated; this value reflects the degree of stenosis in the cardiac outflow tract vessel.

Setting [5] is: 300 mg/kg intragastric for 14 consecutive days.

SMILES strings stand for the structures.

As to `O=C(Cc1ccc2ncccc2c1)N1CCC(n2c(=O)n(COP(=O)([O-])[O-])c3cccc(C(F)(F)F)c32)CC1.[Na+].[Na+]` [GEN1-284 salt, (2-Oxo-3-(1-(2-(quinolin-6-yl)acetyl)piperidin-4-yl)-4-(trifluoromethyl)-2,3-dihydro-1H-benzo[d]imidazol-1-yl)methyl disodium phosphate], the “Inhibition rate against LPS-induced TNF-α” value in data set [1] is on record as 36%. Also, in data set [2], the “Formation of atherosclerotic plaques” value is listed as “significantly reduced the formation of atherosclerotic plaques”. In the data set on female BALB/c mice (setting [5]), the “Change in body weight” value was “no significant change in body weight” and the Survival result is “did not affect the survival of the mice”. In addition, the “Number of mice that died” value with female BALB/c mice (600 mg/kg group, Day 4) worked out at 1 mouse. In addition, the “Number of mice that died 2 h after administration” value with female BALB/c mice (1000 mg/kg intragastric, day 1, group of 3) is reported as 2 mice. For the same compound, in the data set with female BALB/c mice (continuous administration of 600 mg/kg), the “Time within which all mice died” value is at most 5 days. Further, the “Effect on dyslipidemia (TCHO, TG, HDL-C and LDL-C)” value in data set [3] was “partially ameliorate dyslipidemia”. In addition, in data set [4], the “Left ventricular outflow tract plaques” value is reported as “a certain ameliorating effect on outflow tract plaques”.
